Read-outs that look alike come from different tables or passages of the source.
Tests used:
Botrytis cinerea [1] = assay: Antifungal test for pathogens (PDA plate), B.c; format: cell-based; settings: PDA plate medium
Botrytis cinerea [2] = assay: Gray mold disease control effect on cucumbers, foliar spray treatment; format: in vivo; settings: cucumber gray mold, wettable powder foliar spray 1,000 L/ha, four days after inoculation
Fusarium graminearum = format: cell-based; settings: PDA plate medium
Rhizoctonia solani = assay: Antifungal test for pathogens (PDA plate), R.s; format: cell-based; settings: PDA plate medium
Penicillium italicum = assay: Antifungal test for pathogens (PDA plate), P.i; format: cell-based; settings: PDA plate medium
Cercospora beticola = assay: Antifungal test for pathogens (PDA plate), C.b; format: cell-based; settings: PDA plate medium
Gibberella fujikuroi = assay: Antifungal test for pathogens (PDA plate), G.f; format: cell-based; settings: PDA plate medium
wheat brown rust = assay: Brown rust control effect on wheat, seed treatment; format: in vivo; settings: sixteen days after inoculation
Method: A pot test was performed to evaluate the brown rust controlling effect on wheat using seed treatment. Compound (1(−)) or Compound (1(+)) was dissolved in DMSO so the treatment amount was 20 g ai/100 kg seeds or 2 g ai/100 kg seeds, and the solution was smeared on wheat seeds in a vial, and eight wheat seeds were seeded in a 80 cm^2 pot. These were irrigated from below in a greenhouse. Fifteen days after seeding, the seedlings were inoculated with wheat brown rust and then kept for two days in a box. These were again irrigated from below in a greenhouse.

Alternaria alternata = assay: Antifungal test for pathogens (PDA plate), A.m; format: cell-based; settings: PDA plate medium
[3] = test system: Wheat leaf blight (Septoria tritici); assay: Antifungal test against wheat leaf blight (PDA plate); settings: 19 days at 25° C.
Method: Wheat leaf blight (Septoria tritici) cultured beforehand in a medium plate was punched out with a 4 mm-diameter cork borer, and inoculated in the plate media containing the agent. After inoculation, they were cultured for 19 days at 25° C., and the growth of the fungus was determined by the diameter of the growth. The growth rate of the fungus in the plate media containing the agent was compared to the growth rate of the fungus in the plate medium not containing the agent, and the filamentous fungi inhibition rate was determined using the following equation. In the equation, R is the filamentous fungi inhibition rate (%), dc is the diameter of the fungal growth in the untreated plate media, and dt is the diameter of the fungal growth in the treated plate media. R=100(dc−dt)/dc

Microdochium nivale = assay: Antifungal test for pathogens (PDA plate), M.n; format: cell-based; settings: PDA plate medium
Ustilago nuda = assay: Antifungal test for pathogens (PDA plate), U.n; format: cell-based; settings: PDA plate medium
Fusarium oxysporum = assay: Antifungal test for pathogens (PDA plate), F.c; format: cell-based; settings: PDA plate medium
Sclerotinia sclerotiorum = assay: Antifungal test for pathogens (PDA plate), S.s; format: cell-based; settings: PDA plate medium
Phaeosphaeria nodorum = assay: Antifungal test for pathogens (PDA plate), P.n; format: cell-based; settings: PDA plate medium
[4] = test system: Pseudocercoporella herpotrichoides; assay: Antifungal test for pathogens (PDA plate), P.h; format: cell-based; settings: PDA plate medium
Rhynchosporium secalis = assay: Antifungal test for pathogens (PDA plate), R.sec; format: cell-based; settings: PDA plate medium
Glomerella cingurata = assay: Antifungal test for pathogens (PDA plate), G.c; format: cell-based; settings: PDA plate medium
Pyricularia oryzae = format: cell-based; settings: PDA plate medium
Gaeumannomyces graminis = assay: Antifungal test for pathogens (PDA plate), G.g; format: cell-based; settings: PDA plate medium
Pyrenophora graminea = assay: Antifungal test for pathogens (PDA plate), P.g; format: cell-based; settings: PDA plate medium
wheat leaf rust = assay: Rust control effect on wheat, foliar spray treatment; format: in vivo; settings: wettable powder foliar spray 1,000 L/ha, twelve days after inoculation
wheat leaf blight = assay: Leaf blotch control effect on wheat, foliar spray treatment; settings: wettable powder foliar spray 1,000 L/ha, thirty days after inoculation
Method: After blow drying the sprayed leaves, the plants were sprinkled and inoculated with wheat leaf blight. Thirty days after inoculation, the morbidity of the wheat to powdery mildew was evaluated according to the criteria shown in Table 3, and the preventative value was calculated using the following equation. When the average morbidity of the sprayed plot was higher than the average morbidity of the unsprayed plot, the preventative value was 0%. Preventative value (%)=(1−(average morbidity of the sprayed plot/average morbidity of the unsprayed plot))×100.

wheat = assay: Phytotoxicity evaluation of growth inhibition of wheat seeds, seed treatment; format: in vivo; settings: fifteen days after seeding, untreated 21 cm
Method: A pot test was used to perform a phytotoxicity evaluation of growth inhibition using a seed treatment. Compound (1(−)) or Compound (1(+)) was dissolved in DMSO so the treatment amount was 2 or 20 g ai/100 kg seeds, and the solution was smeared on wheat seeds in a vial, and eight wheat seeds were seeded in a 80 cm^2 pot. These were irrigated from below in a greenhouse. Fifteen days after seeding, the length of the wheat was evaluated.

powdery mildew = assay: Powdery mildew control effect on wheat, foliar spray treatment; format: in vivo; settings: wettable powder foliar spray 1,000 L/ha, seven days after inoculation
Rhizopus oryzae = assay: Antifungal test for pathogens (PDA plate), R.o; format: cell-based; settings: PDA plate medium

COC(=O)[C@]1(C)CC[C@H](Cc2ccc(Cl)cc2)[C@@]1(O)Cn1cncn1 (relative stereo) [Compound (1(−)), (1,2-cis, 1,3-cis)-3-(4-chlorobenzyl)-2-hydroxy-1-methyl-2-(1H-1,2,4-triazole-1-ylmethyl)cyclopentanecarboxylic acid methyl ester]
70%: Preventative Value (%) (wheat brown rust; seed treatment 2 g ai/100 kg seeds)
1 (<60%): Antifungal Index of Each Strain P.i (Penicillium italicum; Sample Conc. 0.08 mg/L) | Antifungal Index of Each Strain P.i (Penicillium italicum; Sample Conc. 0.16 mg/L) | Antifungal Index ([3]; sample conc. 0.31 mg/L)
2 (70%-60%): Antifungal Index ([3]; sample conc. 0.63 mg/L) | Antifungal Index of Each Strain P.g (Pyrenophora graminea; Sample Conc. 0.08 mg/L)
96%: Preventative Value (%) (powdery mildew; sample conc. 12.5 mg/L)
64.7%: Preventative Value (%) (Botrytis cinerea [2]; sample conc. 12.5 mg/L)
37.5%: Preventative Value (%) (wheat leaf blight; sample conc. 12.5 mg/L)
4 (90%-80%): Antifungal Index of Each Strain A.m (Alternaria alternata; Sample Conc. 2.5 mg/L) | Antifungal Index ([3]; sample conc. 1.25 mg/L) | Antifungal Index of Each Strain P.o (Pyricularia oryzae; Sample Conc. 1.25 mg/L) | Antifungal Index of Each Strain P.g (Pyrenophora graminea; Sample Conc. 0.31 mg/L)
100%: Preventative Value (%) (Botrytis cinerea [2]; sample conc. 50.0 mg/L) | Preventative Value (%) (wheat brown rust; seed treatment 20 g ai/100 kg seeds)
11 cm: Average Plant Length (cm) (wheat; wheat seed treatment 2 g ai/100 kg seeds)
92.9%: Preventative Value (%) (wheat leaf rust; sample conc. 3.1 mg/L)
83.5%: Preventative Value (%) (wheat leaf rust; sample conc. 0.8 mg/L)
6 cm: Average Plant Length (cm) (wheat; wheat seed treatment 20 g ai/100 kg seeds)
65%: Preventative Value (%) (wheat leaf blight; sample conc. 50 mg/L)
98%: Preventative Value (%) (powdery mildew; sample conc. 50.0 mg/L)
5 (>90%): Antifungal Index of Each Strain B.c (Botrytis cinerea [1]; Sample Conc. 1.25 mg/L) | Antifungal Index of Each Strain B.c (Botrytis cinerea [1]; Sample Conc. 2.5 mg/L) | Antifungal Index of Each Strain B.c (Botrytis cinerea [1]; Sample Conc. 5 mg/L) | Antifungal Index of Each Strain F.g (Fusarium graminearum; Sample Conc. 1.25 mg/L) | Antifungal Index of Each Strain F.g (Fusarium graminearum; Sample Conc. 2.5 mg/L) | Antifungal Index of Each Strain F.g (Fusarium graminearum; Sample Conc. 5 mg/L) | Antifungal Index of Each Strain R.s (Rhizoctonia solani; Sample Conc. 1.25 mg/L) | Antifungal Index of Each Strain R.s (Rhizoctonia solani; Sample Conc. 2.5 mg/L) | Antifungal Index of Each Strain R.s (Rhizoctonia solani; Sample Conc. 5 mg/L) | Antifungal Index of Each Strain P.i (Penicillium italicum; Sample Conc. 0.63 mg/L) | Antifungal Index of Each Strain C.b (Cercospora beticola; Sample Conc. 0.08 mg/L) | Antifungal Index of Each Strain C.b (Cercospora beticola; Sample Conc. 0.16 mg/L) | Antifungal Index of Each Strain C.b (Cercospora beticola; Sample Conc. 0.31 mg/L) | Antifungal Index of Each Strain C.b (Cercospora beticola; Sample Conc. 0.63 mg/L) | Antifungal Index of Each Strain G.f (Gibberella fujikuroi; Sample Conc. 1.25 mg/L) | Antifungal Index of Each Strain G.f (Gibberella fujikuroi; Sample Conc. 2.5 mg/L) | Antifungal Index of Each Strain G.f (Gibberella fujikuroi; Sample Conc. 5 mg/L) | Antifungal Index of Each Strain A.m (Alternaria alternata; Sample Conc. 5 mg/L) | Antifungal Index of Each Strain M.n (Microdochium nivale; Sample Conc. 2.5 mg/L) | Antifungal Index of Each Strain M.n (Microdochium nivale; Sample Conc. 5 mg/L) | Antifungal Index of Each Strain U.n (Ustilago nuda; Sample Conc. 1.25 mg/L) | Antifungal Index of Each Strain U.n (Ustilago nuda; Sample Conc. 2.5 mg/L) | Antifungal Index of Each Strain U.n (Ustilago nuda; Sample Conc. 5 mg/L) | Antifungal Index of Each Strain F.c (Fusarium oxysporum; Sample Conc. 1.25 mg/L) | Antifungal Index of Each Strain F.c (Fusarium oxysporum; Sample Conc. 2.5 mg/L) | Antifungal Index of Each Strain F.c (Fusarium oxysporum; Sample Conc. 5 mg/L) | Antifungal Index of Each Strain S.s (Sclerotinia sclerotiorum; Sample Conc. 1.25 mg/L) | Antifungal Index of Each Strain S.s (Sclerotinia sclerotiorum; Sample Conc. 2.5 mg/L) | Antifungal Index of Each Strain S.s (Sclerotinia sclerotiorum; Sample Conc. 5 mg/L) | Antifungal Index of Each Strain P.n (Phaeosphaeria nodorum; Sample Conc. 1.25 mg/L) | Antifungal Index of Each Strain P.n (Phaeosphaeria nodorum; Sample Conc. 2.5 mg/L) | Antifungal Index of Each Strain P.n (Phaeosphaeria nodorum; Sample Conc. 5 mg/L) | Antifungal Index of Each Strain P.h ([4]; Sample Conc. 1.25 mg/L) | Antifungal Index of Each Strain P.h ([4]; Sample Conc. 2.5 mg/L) | Antifungal Index of Each Strain P.h ([4]; Sample Conc. 5 mg/L) | Antifungal Index of Each Strain R.sec (Rhynchosporium secalis; Sample Conc. 0.08 mg/L) | Antifungal Index of Each Strain R.sec (Rhynchosporium secalis; Sample Conc. 0.16 mg/L) | Antifungal Index of Each Strain R.sec (Rhynchosporium secalis; Sample Conc. 0.31 mg/L) | Antifungal Index of Each Strain R.sec (Rhynchosporium secalis; Sample Conc. 0.63 mg/L) | Antifungal Index of Each Strain G.c (Glomerella cingurata; Sample Conc. 1.25 mg/L) | Antifungal Index of Each Strain G.c (Glomerella cingurata; Sample Conc. 2.5 mg/L) | Antifungal Index of Each Strain G.c (Glomerella cingurata; Sample Conc. 5 mg/L) | Antifungal Index of Each Strain P.o (Pyricularia oryzae; Sample Conc. 2.5 mg/L) | Antifungal Index of Each Strain P.o (Pyricularia oryzae; Sample Conc. 5 mg/L) | Antifungal Index of Each Strain G.g (Gaeumannomyces graminis; Sample Conc. 1.25 mg/L) | Antifungal Index of Each Strain G.g (Gaeumannomyces graminis; Sample Conc. 2.5 mg/L) | Antifungal Index of Each Strain G.g (Gaeumannomyces graminis; Sample Conc. 5 mg/L) | Antifungal Index of Each Strain P.g (Pyrenophora graminea; Sample Conc. 0.63 mg/L) | Antifungal Index of Each Strain R.o (Rhizopus oryzae; Sample Conc. 1.25 mg/L) | Antifungal Index of Each Strain R.o (Rhizopus oryzae; Sample Conc. 2.5 mg/L) | Antifungal Index of Each Strain R.o (Rhizopus oryzae; Sample Conc. 5 mg/L)
3 (80%-70%): Antifungal Index of Each Strain P.i (Penicillium italicum; Sample Conc. 0.31 mg/L) | Antifungal Index of Each Strain A.m (Alternaria alternata; Sample Conc. 1.25 mg/L) | Antifungal Index of Each Strain M.n (Microdochium nivale; Sample Conc. 1.25 mg/L) | Antifungal Index of Each Strain P.g (Pyrenophora graminea; Sample Conc. 0.16 mg/L)

CC1(C)CCC(Cc2ccc(Cl)cc2)C1(O)Cn1cncn1 (centres unmarked) [Metconazole, reference compound]
34.1%: Preventative Value (%) (wheat leaf rust; sample conc. 0.8 mg/L)
1 (<60%): Antifungal Index ([3]; sample conc. 0.31 mg/L)
0%: Preventative Value (%) (wheat leaf blight; sample conc. 12.5 mg/L)
81.1%: Preventative Value (%) (wheat leaf rust; sample conc. 3.1 mg/L)
62.5%: Preventative Value (%) (wheat leaf blight; sample conc. 50 mg/L)
4 (90%-80%): Antifungal Index ([3]; sample conc. 1.25 mg/L)
2 (70%-60%): Antifungal Index ([3]; sample conc. 0.63 mg/L)

Reference: patent publication US9278941B2, “Azole derivative and uses thereof” (Kureha Corporation, priority 2011, dated 2016)
